According to patent US20240336638A1, “IMIDAZOLE COMPOUND, AND INTERMEDIATE AND APPLICATION THEREOF” (priority 2021, published 2024):
Where two headings read alike, the source gives them in different places.

Tests used:
[1] = test system: MCAO/R rats; experiment: Therapeutic administration (i.v.) in middle cerebral artery occlusion/reperfusion (MCAO/R) rats; format: in vivo, rat; conditions: once a day for 3 days, mean ± SD, n = 8; for Neurological function score: modified Bederson score
Description: Male SD rats weighing 250 to 300 g were taken, and the rats in each group fasted for 12 hours before modeling, while water was not restricted. According to the method of Longa et al.^[1], a rat model of MCAO/R was established by occluding the blood flow of internal carotid artery using the thread embolization method. The rats were anesthetized with 3% chloral hydrate (300 mg/kg, 1 mL/100 g body weight) through intraperitoneal injection and fixed in the supine position on the operating table. A midline incision was made in the neck, and the right common carotid artery was isolated using forceps and threaded for later use. The external and internal carotid arteries were isolated from the bifurcation of the common carotid artery. A single thread was threaded through the internal carotid artery, and two threads were threaded through the external carotid artery. Both distal and proximal ends were ligated, and the middle part of the ligation site was cut using ophthalmic scissors. The proximal main trunk of the external carotid artery was isolated and reserved for later use. The prepared cotton thread was used to half-ligate the common carotid artery (tying a slipknot), and the thread prepared for the internal carotid artery was tightened with hemostatic forceps, temporarily occluding the blood flow of the internal carotid artery. A small incision at the proximal main trunk of the external carotid artery was made using ophthalmic scissors, and then, the fishing line was held with straight forceps, inserted from this incision, and slowly advanced through the isolated proximal main trunk of the external carotid artery towards the intracranial direction of the internal carotid artery. The advancement was stopped at a predetermined position, and then the thread of the internal carotid artery that was tightened with the hemostatic forceps was loosened. […] Another thread was threaded and tightened around the proximal main trunk of the external carotid artery and the fishing line that had already been inserted into the predetermined position. The half-ligated thread on the common carotid artery was then loosened, and the skin was subsequently sutured. After 2 hours of ischemia, a small section of the fishing line was pulled out. […] After rats in the blank control group were anesthetized, only the bifurcation of the internal and external carotid arteries was exposed without the occlusion of the MCA.
Successfully modeled rats (neurological function score of 3 after reperfusion) were taken and divided into 20 groups (8 rats for each) according to the random number table method. The groups were divided into a model control group, three dose groups (high, 12 mg/kg, 2.4 mg/mL; medium, 6 mg/kg, 1.2 mg/mL; low, 3 mg/kg, 0.6 mg/mL) for each of the six test compounds, and a positive drug Ozagrel group (6 mg/kg, 1.2 mg/mL), respectively. Both blank and model control groups were administered equal volumes of mixed solvents, and the rats in each group were administered by tail vein injection (i.v.) 2 hours after reperfusion, once a day for 3 consecutive days, with a volume of 0.5 mL/100 g body weight.
Ten minutes after the last administration, the neurological function of the animals was graded according to the modified Bederson scoring method. The standard is as follows[2]: • 0 point: no neurological symptoms; • 1 point: when the rat is suspended by lifting its tail, the forelimb on the surgical side of the rat was flexed and pressed against the chest wall; • 2 points: on a smooth plane, when the rat is pushed from the surgical side to the opposite side, the resistance is less than when it is moved to the same side; • 3 points: the animal moves around or in circles when moving freely; • 4 points: flaccid paralysis, no spontaneous movement of limbs.
After Bederson scoring, the rats were executed by cervical dislocation, and the whole brain was removed and weighed. After weighing, the whole brain was placed in a −20° C. refrigerator for 20 minutes. […]

[2] = Pharmacokinetics in SD rats after single IV and PO administration, plasma; format: in vivo; conditions: for Vd / AUC(0-inf) / AUC(0-t) / C0 / Cmax / Tmax / half-life / MRT last / MRT inf / bioavailability: Sprague-Dawley (SD), rat plasma; for Vd: rat, plasma, iv, 1 mg/kg; for MRT last: read-out: MRT(0−t); for MRT inf: read-out: MRT(0−∞); for bioavailability: PO 6 mg/kg vs IV 1 mg/kg
Description: The experimental method of administration by gavage injection in rats: SD rats weighing 180 to 220 g were fasted for 12 hours prior to the experiment, with free access to water. After administration, food and water were withheld for 4 hours. After this 4-hour period, the rats were allowed free access to water, and food was provided after 8 hours. The drugs were administered at a set dose. N=3, blood samples were taken before administration, and 5 minutes, 0.25 hours, 0.5 hours, 0.75 hours, 1 hour, 2 hours, 4 hours, 8 hours, and 24 hours after administration, respectively, and placed into sodium heparin anticoagulant tubes. The tubes were centrifuged for 1 hour at 4° C. and at 8000 rpm for 5 minutes, and the plasma was then separated and stored in centrifuge tubes at −70° C. for analysis. The experimental method of intravenous administration to rats: SD rats weighing 180 to 220 g were fasted for 12 hours prior to the experiment, with free access to water. After administration, food and water were withheld for 4 hours. After this 4-hour period, the rats were allowed free access to water, and food was provided after 8 hours. The drugs were administered at a set dose. N=3, blood samples were taken before administration, and 5 minutes, 0.25 hours, 0.5 hours, 0.75 hours, 1 hour, 2 hours, 4 hours, 8 hours, and 24 hours after administration, respectively, and placed into sodium heparin anticoagulant tubes. The tubes were centrifuged for 1 hour at 4° C. and at 8000 rpm for 5 minutes, and the plasma was then separated and stored in centrifuge tubes at −70° C. for analysis. The plasma concentration-time data were processed using the Phoenix® WinNonlin® 8.0 program to calculate pharmacokinetic parameters. Among them, Cmax and Tmax are measured values, the elimination rate constant k of the tail section of the C-t curve is obtained from the linear regression of LnC-t, and the value of AUC0-4 is calculated by the trapezoidal area method, and the area under the curve from 0 to ∞ time is AUC=AUC0-4+Ct/k. [table]

[3] = medium dose 6 mg/kg i.v. (Ozagrel group 6 mg/kg)

Structure (SMILES)	Bleeding time [1, 3] [s]	Brain water content (%) [1, 3] [%]	Cerebral infarction rate (%) [1, 3] [%]	Clotting time [1, 3] [s]	Neurological function score [1, 3]	Vd ([2]; IV 1 mg/kg, read-out: Vss) [L/kg]	Vd ([2]; IV 1 mg/kg, read-out: Vz) [L/kg]	AUC(0-inf) ([2]; IV 1 mg/kg) [ng·h/mL]	AUC(0-t) ([2]; IV 1 mg/kg) [ng·h/mL]	C0 ([2]; IV 1 mg/kg) [ng/mL]	Cmax ([2]; IV 1 mg/kg) [ng/mL]	Tmax ([2]; IV 1 mg/kg) [h]	half-life ([2]; IV 1 mg/kg) [h]	MRT last ([2]; IV 1 mg/kg) [h]	MRT inf ([2]; IV 1 mg/kg) [h]	AUC(0-inf) ([2]; PO 6 mg/kg) [ng·h/mL]	AUC(0-t) ([2]; PO 6 mg/kg) [ng·h/mL]	Cmax ([2]; PO 6 mg/kg) [ng/mL]	Tmax ([2]; PO 6 mg/kg) [h]	half-life ([2]; PO 6 mg/kg) [h]	also measured
O=C(O)[C@@H]1C[C@H]1c1ccc(Cn2ccnc2)c(F)c1 [Compound 15, (1R,2R)-2-(4-((1H-Imidazol-1-yl)methyl)-3-fluorophenyl)cyclopropane-1-carboxylic acid]	304.88 ± 43.01	81.19 ± 1.32	21.57	156.50 ± 31.15	1.75 ± 0.71	0.34	0.38	3440	3430	3710	3160	0.083	0.91	1.14	1.16	80700	78400	18600	1	1.51	Bleeding time ([1]; high dose 12 mg/kg i.v.): 289.63 ± 60.00 s; Brain water content (%) ([1]; high dose 12 mg/kg i.v.): 80.84 ± 1.40%; Cerebral infarction rate (%) ([1]; high dose 12 mg/kg i.v.): 15.57%; Clotting time ([1]; high dose 12 mg/kg i.v.): 163.13 ± 20.06 s; Neurological function score ([1]; high dose 12 mg/kg i.v.): 1.50 ± 0.53; Bleeding time ([1]; low dose 3 mg/kg i.v.): 281.38 ± 61.33 s; Brain water content (%) ([1]; low dose 3 mg/kg i.v.): 81.71 ± 1.64%; Cerebral infarction rate (%) ([1]; low dose 3 mg/kg i.v.): 29.98 ± 5.52%; Clotting time ([1]; low dose 3 mg/kg i.v.): 155.38 ± 41.85 s; Neurological function score ([1]; low dose 3 mg/kg i.v.): 2.38 ± 0.74; bioavailability [2]: 381%; MRT last ([2]; PO 6 mg/kg): 2.57 h; MRT inf ([2]; PO 6 mg/kg): 2.79 h; T1/2 and AUC(0-∞) in the whole body blood circulation system as compared to that of Ozagrel ([2]; intravenously at 1 mg/kg): significantly increased; T1/2 and AUC(0-∞) in the whole body blood circulation system as compared to that of Ozagrel ([2]; orally at 6 mg/kg): significantly increased
O=C(O)/C=C/c1ccc(Cn2ccnc2)cc1 [Ozagrel, reference compound]	300.00 ± 26.93	79.73 ± 2.02	21.70	154.50 ± 16.91	1.50 ± 0.93	0.25	0.74	510	510	3670	1840	0.083	0.26	0.12	0.13	2680	2680	3780	0.25	0.73	bioavailability [2]: 87.5%; MRT last ([2]; PO 6 mg/kg): 0.62 h; MRT inf ([2]; PO 6 mg/kg): 0.63 h
O=C(O)[C@@H]1C[C@H]1c1ccc(Cn2cnc(F)c2)c(Cl)c1 [Compound 18, (1R,2R)-2-(3-Chloro-4-((4-fluoro-1H-imidazol-1-yl)methyl)phenyl)cyclopropane-1-carboxylic acid]	271.63 ± 40.55	80.95 ± 1.79	20.75	158.19 ± 19.62	1.88 ± 0.83	0.2	0.21	70700	55900	6590	6340	0.083	10.4	7.73	14.3	757000	576000	41400	1	11.6	Bleeding time ([1]; high dose 12 mg/kg i.v.): 330.25 ± 50.14 s; Brain water content (%) ([1]; high dose 12 mg/kg i.v.): 80.54 ± 1.62%; Cerebral infarction rate (%) ([1]; high dose 12 mg/kg i.v.): 17.78%; Clotting time ([1]; high dose 12 mg/kg i.v.): 147.25 ± 13.30 s; Neurological function score ([1]; high dose 12 mg/kg i.v.): 1.63 ± 0.52; Bleeding time ([1]; low dose 3 mg/kg i.v.): 267.38 ± 50.19 s; Brain water content (%) ([1]; low dose 3 mg/kg i.v.): 80.64 ± 2.21%; Cerebral infarction rate (%) ([1]; low dose 3 mg/kg i.v.): 26.58 ± 4.57%; Clotting time ([1]; low dose 3 mg/kg i.v.): 152.38 ± 28.67 s; Neurological function score ([1]; low dose 3 mg/kg i.v.): 2.25 ± 0.46; bioavailability [2]: 172%; MRT last ([2]; PO 6 mg/kg): 8.39 h; MRT inf ([2]; PO 6 mg/kg): 16.1 h; T1/2 and AUC(0-∞) in the whole body blood circulation system as compared to that of Ozagrel ([2]; intravenously at 1 mg/kg): significantly increased; T1/2 and AUC(0-∞) in the whole body blood circulation system as compared to that of Ozagrel ([2]; orally at 6 mg/kg): significantly increased
